Test system: Rattus norvegicus
Test: Compound was evaluated for the cytoprotective effect at an oral dose of 40 mg/kg in rat
Type: functional

Row | SMILES | Cytoprotective effect
1 | C[C@@H]1C[C@H]2OC(=O)[C@H](C)[C@H]2[C@H](O)[C@]2(C)C(=O)CCC12 (some centres not stated) | 3.7
2 | CC1C(=O)O[C@@H]2[C@H]1CC[C@H](C)[C@@]1(O)CCC(=O)[C@@]21C (some centres not stated) | 4.5

Test system: Rattus norvegicus
Test: Cytoprotective effect at an oral dose of 40 mg/kg
Type: functional
Parameters: unit not given here

Row | SMILES | Cytoprotective effect
3 | C=C1C(=O)OC2/C=C(\C)C[C@@H]3C=C(CC(OC(=O)C(C)CC)[C@@H]12)C(=O)O3 (some centres not stated) | 4
4 | C=C1C(=O)O[C@@H]2C[C@@H](C)C3=CCC(=O)[C@@]3(C)[C@@H](OC(C)=O)[C@H]12 | 0.9
5 | CC1C(=O)O[C@@H]2[C@H]1CC[C@H](C)[C@@]1(O)C=CC(=O)[C@@]21C (some centres not stated) | 4
6 | C[C@@H]1C[C@H]2OC(=O)[C@H](C)[C@H]2[C@H](O)[C@]2(C)C(=O)C=CC12 (some centres not stated) | 0.66
7 | C=C1C(=O)O[C@@H]2C[C@@H](C)C3C=CC(=O)[C@@]3(C)[C@@H](OC(=O)CNC(=O)C(F)(F)F)[C@H]12 (some centres not stated) | 0.95
8 | C=C1C(=O)O[C@@H]2C[C@@H](C)C3C=CC(=O)[C@@]3(C)[C@@H](OC(C)=O)[C@H]12 (some centres not stated) | 1
9 | C=C1C(=O)O[C@@H]2C[C@@H](C)C3CCC(=O)[C@@]3(C)[C@@H](O)[C@H]12 (some centres not stated) | 1
10 | CC1=CC(=O)C2C(C)CC[C@H]3[C@H](C)C(=O)O[C@@H]3[C@]12C (some centres not stated) | 3.5
11 | C=C1C(=O)O[C@@H]2C[C@@H](C)C3C=CC(=O)[C@@]3(C)[C@@H](OC(=O)CN)[C@H]12 (some centres not stated) | 0.85
12 | C=C1C(=O)O[C@@H]2[C@H]3C(C)=CC(=O)C3=C(C)CC[C@@H]12 [DEHYDROLEUCODIN] | 0.25
13 | C=C1C(=O)O[C@@H]2C[C@@H](C)C3CCC(C)=C3[C@@H](O)[C@H]12 (some centres not stated) [GUAIANOLIDE] | 0.7
14 | C=C1C(=O)O[C@@H]2C[C@@H](C)[C@@H]3C=CC(=O)[C@@]3(C)[C@@H](O)[C@H]12 [HELENALIN] | 0.33
15 | C=C1C(=O)O[C@@H]2[C@H]1CC[C@H](C)[C@@]1(O)C=CC(=O)[C@@]21C [HYMENIN] | 0.25
16 | C=C1C(=O)O[C@H]2[C@H]1CCC(C)=C1C[C@H]3O[C@@]3(C)[C@@H]12 [LUDARTIN] | 0.5
17 | C=C1C(=O)O[C@H]2C[C@@H](C)[C@@H]3C=CC(=O)[C@@]3(C)[C@H](O)[C@H]12 [MEXICANIN I] | 0.25

From ChEMBL document CHEMBL1125467, “Structure-activity relationship in the gastric cytoprotective effect of several sesquiterpene lactones” (1992)
